Results: patent US6576620B2, “Method of identifying partial adenosine A1 receptor agonists” (CV Therapeutics, Inc., priority 1999, dated 2003)
Read-outs that look alike come from different tables or passages of the source. Blank lines part the entries; values can stand above or below the compound they belong to.

How the values were obtained:
A1-AdoR [1] = target: T1, A1-AdoR (Cavia porcellus, UniProt P47745); assay: 3H-CPX binding to guinea pig forebrain membranes; settings: for IC50: IC50 to reduce the binding of 3H-CPX
T1 sequence (P47745 1-326): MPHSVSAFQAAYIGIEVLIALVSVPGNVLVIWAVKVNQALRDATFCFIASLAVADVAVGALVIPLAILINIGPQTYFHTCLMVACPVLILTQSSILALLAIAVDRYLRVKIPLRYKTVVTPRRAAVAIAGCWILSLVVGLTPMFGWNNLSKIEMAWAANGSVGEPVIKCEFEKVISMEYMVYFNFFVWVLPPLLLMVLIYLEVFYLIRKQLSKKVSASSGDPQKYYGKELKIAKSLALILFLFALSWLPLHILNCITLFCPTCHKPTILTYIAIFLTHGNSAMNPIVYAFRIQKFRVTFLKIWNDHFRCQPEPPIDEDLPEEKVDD
Description: (§1) Membranes containing A1-AdoRs for use in radioligand binding assays were prepared from guinea pig cerebral cortex or from rat isolated epididymal adipocytes. Freshly-isolated guinea pig brain cortical tissue was homogenized in ice-cold 50 mM Tris-HCl buffer (pH 7.4) using six up and down strokes of an ice-chilled Potter-Elvejhem tissue grinder and a motor-driven teflon™ pestle. A crude membrane preparation was isolated by centrifugation of the homogenate at 15,000×g for 20 min at 4° C. The membrane pellet was resuspended in fresh Tris buffer and pelleted again by centrifugation. The final membrane pellet was suspended in Tris buffer to achieve a protein content of 1.1-1.4 mg/ml and divided into aliquots for storage at −80° C. until needed for assays. Adipocytes were isolated from 10 epididymal fat pads and suspended in a homogenization buffer (pH 7.3) containing 250 mM sucrose, 20 mM HEPES, 1 mM EDTA, 10 μg/ml leupeptin, and 5 μg/ml pepstatin. Cells were homogenized using an ice-chilled Potter-Elvehjem tissue grinder and a motor-driven teflon™ pestle. Cell membranes were separated from fat by centrifugation of the homogenate for 5 min at 1000×g at 4° C. The infranate below the fat cake was removed and placed in a centrifuge tube. Membranes were collected by centrifugation of the infranate for 30 min at 20,000×g at 4° C. Membranes were resuspended in buffer (pH 7.1 at room temperature) containing 154 mM NaCl, 10 mM MgCl2, 50 mM HEPES, 1 mM EDTA, 5 μg/ml leupeptin, 5 μg/ml pepstatin, and 5 U/ml adenosine deaminase, and stored as aliquots in liquid nitrogen until needed for assays.
(§2) The binding affinity of experimental agonists high and low affinity states of the A1-ADOR was determined. […] The presence of GTP reduces the availability of high affinity binding sites on the GPCR. Thus, the method allows for a discrimination between high and low binding affinities.
(§3) After a 3 hour incubation at room temperature. the reaction was terminated by diluting the samples with ice-cold Tris buffer and immediate collection of membranes onto glass-fiber filters (Schleicher and Schuell, Keene, N.H.) by vacuum filtration using a cell harvester (Brandel, Gaithersburg, Md.). Filters were washed quickly three times with ice-cold buffer to remove unbound radioligand. Filter discs containing trapped membranes and bound radioligand were placed in 4 ml of scintillation cocktail and radioactivity of samples was quantified using a liquid scintillation counter. […] Results of radioligand binding assays were analyzed using the Prism program from GraphPad (San Diego, Calif.).

Adenosine A1 receptor = assay: A1-agonist stimulated [35S]GTPγS binding to G proteins; assay type: biochemical; settings: for GTPγS: normalized to the full agonist CPA
Description: At the end of the incubation, each suspension was filtered and the retained radioactivity determined as described above.

A1-AdoR [2] = target: T2, A1-AdoR (Rattus norvegicus, UniProt P25099); assay: 3H-CPX binding to rat adipocyte membranes; settings: for IC50: IC50 to reduce the binding of 3H-CPX; for Ki: Ki for reduction of 3H-CPX binding
T2 sequence (P25099 1-326): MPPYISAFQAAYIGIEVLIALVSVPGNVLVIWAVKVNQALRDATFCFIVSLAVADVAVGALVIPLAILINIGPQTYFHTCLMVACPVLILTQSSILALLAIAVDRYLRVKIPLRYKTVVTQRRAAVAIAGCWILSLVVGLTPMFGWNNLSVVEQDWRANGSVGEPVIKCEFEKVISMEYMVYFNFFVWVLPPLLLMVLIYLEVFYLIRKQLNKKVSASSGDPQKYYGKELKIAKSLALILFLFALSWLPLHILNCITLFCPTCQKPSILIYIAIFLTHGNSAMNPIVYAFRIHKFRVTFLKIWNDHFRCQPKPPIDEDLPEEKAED
Description: as §1, §2, §3

[3] = system: guinea pig isolated heart; assay: Monophasic action potential duration, isolated heart
Description: Signals were considered adequate if they were stable for at least 5-10 min and the amplitudes exceeded 10 mV. The data were digitized at 2 kHz by a DT-2801A digitizing board (Data Translation, Marlboro, Mass.) and were saved for analysis using the Snapshot data acquisition program (Snapshot Storage Scope, HEM Data Corp., Southfield, Mich.). The duration of the atrial and ventricular monophasic action potentials was measured from onset of depolarization to either 50 or 90% of repolarization.

[4] = Ki for reduction of 3H-CPX binding, absence of GTP

SMILES: OC[C@H]1O[C@@H](n2cnc3c(NC4CCCC4)ncnc32)[C@H](O)[C@@H]1O [CPA, N^6-cyclopentyladenosine, reference compound]
IC50 (A1-AdoR [1]; absence of GTP): 0.0025 µM | IC50 (A1-AdoR [1]; presence of 1 mM GTP): 0.028 µM | Ki (A1-AdoR [1]; [4]): 0.0017 µM | Ki (A1-AdoR [1]; Ki, high affinity sites, presence of 1 mM GTP, 2-site binding model): 0.0104 µM | Hill slope (A1-AdoR [1]; absence of GTP): 1.2 | difference of IC50 in absence and presence of 1 mM GTP (A1-AdoR [1]; forebrain membranes): 11 fold | Hill slope (A1-AdoR [1]; presence of 1 mM GTP): 0.53 | sites having a high affinity (A1-AdoR [1]; presence of 1 mM GTP, 2-site binding model): 73% | Ki (A1-AdoR [1]; read-out: Ki, low affinity sites, presence of 1 mM GTP, 2-site binding model): 0.882 µM | GTPγS (Adenosine A1 receptor; Table 1, compounds of Example 2): 100% | GTPγS (Adenosine A1 receptor; Table 2, compounds of Example 3): 100% | GTPγS (Adenosine A1 receptor; Table 3, compounds of Example 4): 100% | GTPγS (% of CPA) (Adenosine A1 receptor; Table 5): 100 % of CPA | Hill slope (A1-AdoR [2]; absence of GTP): 0.88 | difference of IC50 in absence and presence of GTP (A1-AdoR [2]; adipocyte membranes): 10 fold | Hill slope (A1-AdoR [2]; presence of 1 mM GTP): 1.0

IC50 (A1-AdoR [1]; presence of 1 mM GTP): 2.9 µM | Ki (A1-AdoR [1]; [4]): 1.8 µM | Ki (A1-AdoR [1]; Ki for reduction of 3H-CPX binding, presence of 1 mM GTP): 2.1 µM | Hill slope (A1-AdoR [1]; absence of GTP): 0.79 | Hill slope (A1-AdoR [1]; presence of 1 mM GTP): 0.99 | IC50 (A1-AdoR [2]; absence of GTP): 0.18 µM | IC50 (A1-AdoR [2]; presence of 1 mM GTP): 9.5 µM | IC50 (A1-AdoR [2]; presence of 1 mM GTP and 0.1 mM N-ethylmaleimide): 15 µM | Ki (A1-AdoR [2]; absence of GTP): 0.062 µM | Ki (A1-AdoR [2]; presence of 1 mM GTP): 3.3 µM | Hill slope (A1-AdoR [2]; absence of GTP): 0.87 | IC50 with GTP and N-ethylmaleimide relative to GTP alone (A1-AdoR [2]; adipocyte membranes): 1.6 fold | Hill slope (A1-AdoR [2]; presence of 1 mM GTP): 1.0 | difference of IC50 in absence and presence of GTP (A1-AdoR [2]; rat, adipocyte membranes): 53 fold
SMILES: CNC(=O)OC[C@H]1OC(n2cnc3c(N[C@@H]4CCOC4)ncnc32)[C@H](O)[C@@H]1O (stereo partly drawn) [Compound 6 of Example 2, [(5-{6-[((3R)oxolan-3-yl)amino]purin-9-yl}(3 S,2R,4R)-3,4-dihydroxyoxolan-2-yl)methoxy]-N-methylcarboxamide]
effect on duration of ventricular or atrial monophasic action potential [3]: no significant effect | duration of atrial monophasic action potential at 50% of repolarization ([3]; 20 μM compound, control 41±3): 41 ± 3 ms | duration of atrial monophasic action potential at 90% of repolarization ([3]; 20 μM compound, control 66±4): 74 ± 4 ms | duration of ventricular monophasic action potential at 90% of repolarization ([3]; 20 μM compound, control 158±4): 160 ± 7 ms
